Reference: article PMC11566621 (Stem Cell Research & Therapy, 2024)
pKd: −log10 of the molar value.

Target: KLF4 (Kruppel-Like Factor 4) (Homo sapiens, UniProt O43474)
Assay: SPR
Assay type: binding

Chain of KLF4 (Kruppel-Like Factor 4) (O43474 whole entry): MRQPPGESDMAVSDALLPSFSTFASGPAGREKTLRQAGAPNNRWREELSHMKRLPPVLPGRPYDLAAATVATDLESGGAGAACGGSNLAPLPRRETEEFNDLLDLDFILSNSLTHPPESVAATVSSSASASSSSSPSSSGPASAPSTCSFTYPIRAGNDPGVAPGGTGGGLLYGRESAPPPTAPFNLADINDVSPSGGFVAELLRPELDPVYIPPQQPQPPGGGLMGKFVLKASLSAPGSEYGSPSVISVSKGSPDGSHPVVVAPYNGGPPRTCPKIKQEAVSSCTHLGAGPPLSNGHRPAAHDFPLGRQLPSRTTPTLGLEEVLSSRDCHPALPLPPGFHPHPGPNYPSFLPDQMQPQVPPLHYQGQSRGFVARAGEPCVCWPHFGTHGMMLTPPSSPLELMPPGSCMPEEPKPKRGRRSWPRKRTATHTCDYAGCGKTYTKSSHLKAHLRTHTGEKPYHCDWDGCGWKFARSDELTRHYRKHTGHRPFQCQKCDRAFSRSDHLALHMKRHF

With `C[C@@H]1O[C@@H](O[C@H]2C(=O)c3c(O)cc(O)cc3O[C@@H]2c2ccc(O)c(O)c2)[C@H](O)[C@H](O)[C@H]1O` [Astilbin] the pKd was 4.31.
